In ChEMBL document CHEMBL1135131, “Nicotinanilides as inhibitors of neutrophil chemotaxis” (Bioorg Med Chem Lett, 2002):

Legend:
[1] = target: T1, Interleukin-8 receptors, CXCR1/CXCR2 (Homo sapiens, UniProt P25025+P25024); assay: Inhibition against GRO-alpha driven human neutrophil chemotaxis; type: functional
T1 sequence (P25025 whole entry): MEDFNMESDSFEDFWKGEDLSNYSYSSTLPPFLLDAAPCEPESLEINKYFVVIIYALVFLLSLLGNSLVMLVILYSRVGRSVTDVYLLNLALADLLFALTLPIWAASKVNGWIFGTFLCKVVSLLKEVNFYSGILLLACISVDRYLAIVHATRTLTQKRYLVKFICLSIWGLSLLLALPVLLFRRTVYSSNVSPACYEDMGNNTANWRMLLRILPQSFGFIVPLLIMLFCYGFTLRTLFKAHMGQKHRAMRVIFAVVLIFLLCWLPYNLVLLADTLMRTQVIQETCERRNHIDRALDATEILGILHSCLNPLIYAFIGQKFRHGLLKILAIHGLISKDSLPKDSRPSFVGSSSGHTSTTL
T1 sequence (P25024 whole entry): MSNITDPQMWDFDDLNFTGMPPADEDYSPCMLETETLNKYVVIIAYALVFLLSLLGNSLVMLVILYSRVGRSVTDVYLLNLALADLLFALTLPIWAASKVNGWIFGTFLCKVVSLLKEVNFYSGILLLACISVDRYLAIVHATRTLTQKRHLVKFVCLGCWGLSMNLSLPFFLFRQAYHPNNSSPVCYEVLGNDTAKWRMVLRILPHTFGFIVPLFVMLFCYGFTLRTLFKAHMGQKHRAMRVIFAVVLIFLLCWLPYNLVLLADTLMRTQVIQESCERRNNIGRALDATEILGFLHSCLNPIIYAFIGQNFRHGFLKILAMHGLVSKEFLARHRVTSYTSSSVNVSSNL

[2] = Inhibition against formyl-methionyl-leucyl (FMLP) phenylalanine driven human neutrophil chemotaxis; type: functional
[3] = target: T2, C-X-C chemokine receptor type 2 (Homo sapiens, UniProt P25025); assay: Displacement of [125I]IL-8 from CHO cell membranes expressing human […] chemokine receptor 2
T2 sequence (P25025 whole entry): T1 sequence (P25025 whole entry)

[4] = target: T2, C-X-C chemokine receptor type 2; assay: Displacement of [125I]IL-8 from CHO cell membranes expressing human […] chemokine receptor 2 (CXCR2 filter mat binding assay)

| Structure (SMILES) | IC50 [1] [nM] | IC50 [2] [nM] | IC50 [3] [nM] | IC50 [4] [nM] |
| --- | --- | --- | --- | --- |
| O=C(COc1ccc(C(=O)Nc2ccc(F)cc2)cn1)OCCCCC1CCCCC1 | 680 | > 40000 | – | – |
| COC(=O)CSc1ccc(C(=O)Nc2ccc(F)cc2)cn1 | 42 | – | 32 | – |
| COC(=O)CCSc1ccc(C(=O)Nc2ccc(F)cc2)cn1 | 760 | > 40000 | – | – |
| O=C(O)CCSc1ccc(C(=O)Nc2ccc(F)cc2)cn1 | > 20000 | – | – | – |
| CC(C)CCOC(=O)COc1ccc(C(=O)Nc2ccc(F)cc2)cn1 | 200 | > 40000 | – | – |
| O=C(CSc1ccc(C(=O)Nc2ccc(F)cc2)cn1)OCc1ccc(Br)cc1 | 83 | – | – | – |
| CCCOC(=O)CSc1ccc(C(=O)Nc2ccc(F)cc2)cn1 | 46 | > 40000 | – | – |
| O=C(CSc1ccc(C(=O)Nc2ccc(F)cc2)cn1)OCc1cccc(F)c1 | 43 | – | – | – |
| O=C(O)CCCSc1ccc(C(=O)Nc2ccc(F)cc2)cn1 | 5100 | – | – | – |
| O=C(O)CSc1ccc(C(=O)Nc2ccc(F)cc2)cn1 | > 20000 | – | – | 1200 |
| O=C(COc1ccc(C(=O)Nc2ccc(F)cc2)cn1)OC1CCCCC1 | 220 | > 40000 | – | – |

Continued, values first:

| IC50 [1] [nM] | IC50 [2] [nM] | IC50 [3] [nM] | IC50 [4] [nM] | Structure (SMILES) |
| --- | --- | --- | --- | --- |
| 220 | > 40000 | – | – | O=C(COc1ccc(C(=O)Nc2ccc(F)cc2)cn1)Nc1cccnc1 |
| 410 | – | – | – | O=C(COc1ccc(C(=O)Nc2ccc(F)cc2)cn1)Oc1ccccc1 |
| > 20000 | – | – | – | CNC(=O)COc1ccc(C(=O)Nc2ccc(F)cc2)cn1 |
| 360 | – | – | – | COC(=O)COc1ccc(NC(=O)c2ccc(F)cc2)cn1 |
| 12500 | > 40000 | – | – | CN(C(=O)COc1ccc(C(=O)Nc2ccc(F)cc2)cn1)c1ccccc1 |
| 160 | > 40000 | – | – | CCOC(=O)COc1ccc(C(=O)Nc2ccc(F)cc2)cn1 |
| 1000 | > 40000 | – | – | O=C(COc1ccc(C(=O)Nc2ccc(F)cc2)cn1)Nc1ccccc1 |
| > 20000 | – | – | – | O=C(COc1ccc(C(=O)Nc2ccc(F)cc2)cn1)NC1CCCC1 |
| 50 | > 40000 | – | – | O=C(COc1ccc(C(=O)Nc2ccc(F)cc2)cn1)OCc1cccc(F)c1 |
| 2700 | > 40000 | – | – | O=C(COc1ccc(C(=O)Nc2ccc(F)cc2)cn1)Nc1cccc(Br)c1 |
| 94 | > 40000 | – | – | O=C(COc1ccc(C(=O)Nc2ccc(F)cc2)cn1)OCc1ccccc1 |
| 110 | > 40000 | – | – | COC(=O)COc1ccc(C(=O)Nc2ccc(F)cc2)cn1 |
